The target in data set [1] is ErbB2 WT (Homo sapiens (Human), UniProt P04626). As to the kind of experiment: ErbB Enzyme Assay (HTRF KinEASE-TK), Assay 2. It counts as biochemical. In general terms: In TR-FRET formats the signal depends on donor and acceptor labels being close together.
Data set [2] has as its target EGFR (Homo sapiens (Human), UniProt P00533). As to the kind of experiment: ErbB Enzyme Assay (HTRF KinEASE-TK), Assay 3. It is filed as biochemical.
Data set [3] has as its target ErbB2 with Exon 20 YVMA insertion (HER2-YVMA) (Homo sapiens (Human), UniProt P04626, INS775YVMA). As to the kind of experiment: Cellular Phosphorylation Assay, Assay 4 (constitutive ErbB2 phosphorylation, NIH 3T3 cells). It is filed as cell-based.
Data set [4] addresses EGFR wild type (EGFR WT) (Homo sapiens (Human), UniProt P00533). The data set can be described thus: Cellular Phosphorylation Assay, Assay 5 (EGF-stimulated EGFR phosphorylation, NIH 3T3 cells). It counts as cell-based.
The target in data set [5] is BCRP (Homo sapiens (Human), UniProt Q9UNQ0). As to the kind of experiment: BCRP MDCKII efflux assay (Assay 7). The note with it: dog; efflux ratio Papp(B-A)/Papp(A-B), BCRP MDCKII cells; read-out: Assay 7 Pe Ratio. It counts as in vitro ADME. The protocol: Assay conditions included with and without the BCRP-specific inhibitor, KO143, at a concentration of 0.3 μM to ascertain the contribution of BCRP to the efflux value of the test compound.
Final organic concentration in the assay was 1%.

Data set [6] concerns the target MDR1 (P-gp) (Homo sapiens (Human), UniProt P08183). The data set can be described thus: in vitro. The note with it: pig, LLC-PK1.
Method: Both LLC-PK1 and MDR1 transfected LLC-PK1 cells were cultured and plated according to manufacturer's recommendations with the exception that the passage media contained only 2% fetal bovine serum so as to extend passage time out to seven days.
Both positive and negative controls were used to assess functionality of P-gp or BCRP efflux in the assays. Stock solutions for assay controls and the test article were prepared in DMSO for final test concentrations of 10 μM and 1 μM, respectively. Final organic concentration in the assay was 1%. All dosing solutions contained 10 μM lucifer yellow to monitor LLC PK1 or MDCKII cell monolayer integrity.
For the apical to basolateral determination (A to B), 75 μL of the test article in transport buffer were added to the apical side of the individual transwells and 250 μL of basolateral media, without compound or lucifer yellow, were added to each well. For the basolateral to apical determination (B to A), 250 μL of test article in transport buffer were added to each well and 75 μL transport buffer, without compound or lucifer yellow, were added to each transwell. All tests were performed in triplicate, and each compound was tested for both apical to basolateral and basolateral to apical transport. The plates were incubated for 2 hours on a Lab-Line Instruments Titer Orbital Shaker (VWR, West Chester, PA) at 50 rpm and 37° C. with 5% CO2. All culture plates were removed from the incubator, 50 μL of media were removed from the apical and basolateral portion of each well, and added to 150 μL of 1 μM labetalol in 2:1 acetonitrile (ACN): H2O, v/v.
The plates were read using a Molecular Devices (Sunnyvale, CA) Gemini Fluorometer to evaluate the lucifer yellow concentrations at excitation/emission wavelengths of 425/535 nm. These values were accepted when found to be below 2% for apical to basolateral and 5% basolateral to apical flux across the MDR1-transfected LLC-PK1 or BCRP-transfected MDCKII cell monolayers. The plates were sealed, and the contents of each well analyzed by LC MS/MS. The compound concentrations were determined from the ratio of the peak areas of the compound to the internal standard (labetalol) in comparison to the dosing solution.
The LC-MS/MS system was comprised of an HTS-PAL autosampler (Leap Technologies, Carrboro, NC), an HP1200 HPLC (Agilent, Palo Alto, CA), and a MDS Sciex 4000 Q Trap system (Applied Biosystems, Foster City, CA). […] The total run time, including re-equilibration, for a single injection was 1.2 minutes. Mass spectrometric detection of the analytes was accomplished using the ion spray positive mode. Analyte responses were measured by multiple reaction monitoring (MRM) of transitions unique to each compound (the protonated precursor ion and selected product ions for each test article and m/z 329 to m/z 162 for labetalol, the internal standard).
An efflux ratio is calculated from the mean apical to basolateral (A-B) Papp data and basolateral to apical (B-A) Papp data: Efflux ratio=Papp(B−A)/Papp(A−B)
[7] abbreviates: cellular ErbB2 YVMA phosphorylation.
Where [8] appears, read: cellular EGFR WT phosphorylation, EGF-stimulated.
The mark [9] stands for this setting: EGF-stimulated EGFR WT phosphorylation.

BCRP, sequence (Q9UNQ0 whole entry): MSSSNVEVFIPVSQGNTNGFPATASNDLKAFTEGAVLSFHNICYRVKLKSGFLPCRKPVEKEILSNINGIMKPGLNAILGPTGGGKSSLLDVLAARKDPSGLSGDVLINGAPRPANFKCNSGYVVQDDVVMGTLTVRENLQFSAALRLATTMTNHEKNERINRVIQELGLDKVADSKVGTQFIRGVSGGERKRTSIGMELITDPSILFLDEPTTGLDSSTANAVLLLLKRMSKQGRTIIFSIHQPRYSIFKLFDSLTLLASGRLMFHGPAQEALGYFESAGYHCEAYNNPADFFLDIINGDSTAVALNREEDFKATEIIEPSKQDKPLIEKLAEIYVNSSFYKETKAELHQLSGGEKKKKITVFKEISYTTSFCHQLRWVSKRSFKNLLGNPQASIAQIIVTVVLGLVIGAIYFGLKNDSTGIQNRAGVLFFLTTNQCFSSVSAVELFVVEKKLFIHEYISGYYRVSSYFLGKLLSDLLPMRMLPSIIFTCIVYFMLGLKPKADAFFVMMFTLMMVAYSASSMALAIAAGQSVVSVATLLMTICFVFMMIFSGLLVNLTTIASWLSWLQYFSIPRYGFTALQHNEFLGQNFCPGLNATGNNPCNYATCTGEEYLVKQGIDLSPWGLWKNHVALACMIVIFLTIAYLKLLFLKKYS
ErbB2 WT, sequence (P04626 23-1255): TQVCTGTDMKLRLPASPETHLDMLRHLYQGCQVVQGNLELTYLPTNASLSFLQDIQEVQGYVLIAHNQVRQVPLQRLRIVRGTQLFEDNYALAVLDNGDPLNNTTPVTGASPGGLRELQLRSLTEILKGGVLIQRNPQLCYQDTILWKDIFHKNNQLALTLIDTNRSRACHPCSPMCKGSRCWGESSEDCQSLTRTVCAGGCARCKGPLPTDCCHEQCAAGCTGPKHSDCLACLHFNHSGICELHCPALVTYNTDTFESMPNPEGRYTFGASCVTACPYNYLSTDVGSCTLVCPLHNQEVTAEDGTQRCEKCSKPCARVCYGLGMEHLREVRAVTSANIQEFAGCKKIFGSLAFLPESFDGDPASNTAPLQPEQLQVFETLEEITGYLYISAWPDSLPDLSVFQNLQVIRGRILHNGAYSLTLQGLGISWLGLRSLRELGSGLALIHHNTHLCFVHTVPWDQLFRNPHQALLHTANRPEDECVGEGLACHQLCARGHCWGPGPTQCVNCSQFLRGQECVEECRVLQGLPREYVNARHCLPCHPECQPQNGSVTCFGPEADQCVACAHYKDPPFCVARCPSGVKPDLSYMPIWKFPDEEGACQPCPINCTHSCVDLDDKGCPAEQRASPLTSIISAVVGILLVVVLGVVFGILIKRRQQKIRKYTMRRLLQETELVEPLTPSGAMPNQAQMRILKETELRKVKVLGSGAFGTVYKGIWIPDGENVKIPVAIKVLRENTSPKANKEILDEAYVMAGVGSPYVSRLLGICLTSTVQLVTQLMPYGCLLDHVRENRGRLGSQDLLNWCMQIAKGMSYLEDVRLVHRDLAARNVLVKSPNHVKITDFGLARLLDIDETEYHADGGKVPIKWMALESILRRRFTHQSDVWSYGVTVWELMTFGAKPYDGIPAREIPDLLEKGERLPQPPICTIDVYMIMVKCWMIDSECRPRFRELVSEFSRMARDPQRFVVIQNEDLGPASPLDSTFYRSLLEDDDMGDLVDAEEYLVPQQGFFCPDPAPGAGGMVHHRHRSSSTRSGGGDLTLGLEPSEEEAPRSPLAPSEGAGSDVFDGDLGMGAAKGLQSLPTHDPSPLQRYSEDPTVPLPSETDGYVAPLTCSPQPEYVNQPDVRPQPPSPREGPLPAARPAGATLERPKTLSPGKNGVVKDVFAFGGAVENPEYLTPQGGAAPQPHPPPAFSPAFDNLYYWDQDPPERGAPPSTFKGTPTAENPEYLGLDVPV
ErbB2 with Exon 20 YVMA insertion (HER2-YVMA), sequence (P04626 other isoform, or with tags, fused parts or gaps ins YVMA behind 775): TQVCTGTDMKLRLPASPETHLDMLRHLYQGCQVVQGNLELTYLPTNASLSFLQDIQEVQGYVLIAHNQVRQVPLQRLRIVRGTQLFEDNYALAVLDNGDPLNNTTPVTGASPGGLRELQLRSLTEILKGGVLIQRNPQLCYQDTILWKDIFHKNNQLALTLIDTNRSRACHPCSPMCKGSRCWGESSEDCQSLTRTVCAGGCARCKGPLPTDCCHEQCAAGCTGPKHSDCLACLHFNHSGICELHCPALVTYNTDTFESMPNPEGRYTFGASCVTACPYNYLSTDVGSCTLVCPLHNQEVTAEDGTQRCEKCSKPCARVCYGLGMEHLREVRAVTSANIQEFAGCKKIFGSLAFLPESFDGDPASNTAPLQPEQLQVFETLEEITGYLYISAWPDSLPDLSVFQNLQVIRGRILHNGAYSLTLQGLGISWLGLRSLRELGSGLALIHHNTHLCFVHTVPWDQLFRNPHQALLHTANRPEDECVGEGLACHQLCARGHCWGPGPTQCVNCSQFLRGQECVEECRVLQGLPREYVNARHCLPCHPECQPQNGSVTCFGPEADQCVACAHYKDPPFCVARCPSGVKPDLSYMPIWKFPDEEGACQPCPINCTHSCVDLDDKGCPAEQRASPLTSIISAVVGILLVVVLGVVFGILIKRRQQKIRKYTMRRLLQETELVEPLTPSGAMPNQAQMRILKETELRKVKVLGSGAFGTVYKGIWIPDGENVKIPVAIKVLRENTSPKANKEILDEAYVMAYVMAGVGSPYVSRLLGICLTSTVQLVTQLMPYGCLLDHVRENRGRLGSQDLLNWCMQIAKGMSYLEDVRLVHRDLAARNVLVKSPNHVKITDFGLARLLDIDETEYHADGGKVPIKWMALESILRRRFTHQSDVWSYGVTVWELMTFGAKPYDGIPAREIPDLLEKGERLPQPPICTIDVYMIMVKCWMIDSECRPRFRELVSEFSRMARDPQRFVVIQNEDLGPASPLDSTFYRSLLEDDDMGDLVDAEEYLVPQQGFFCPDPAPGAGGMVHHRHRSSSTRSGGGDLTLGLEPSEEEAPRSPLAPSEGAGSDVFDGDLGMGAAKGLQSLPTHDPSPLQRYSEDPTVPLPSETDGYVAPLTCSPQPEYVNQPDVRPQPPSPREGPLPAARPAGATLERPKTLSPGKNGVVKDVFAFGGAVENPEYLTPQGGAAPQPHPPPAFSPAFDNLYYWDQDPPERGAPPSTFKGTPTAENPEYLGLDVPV
EGFR, sequence (P00533 25-1210): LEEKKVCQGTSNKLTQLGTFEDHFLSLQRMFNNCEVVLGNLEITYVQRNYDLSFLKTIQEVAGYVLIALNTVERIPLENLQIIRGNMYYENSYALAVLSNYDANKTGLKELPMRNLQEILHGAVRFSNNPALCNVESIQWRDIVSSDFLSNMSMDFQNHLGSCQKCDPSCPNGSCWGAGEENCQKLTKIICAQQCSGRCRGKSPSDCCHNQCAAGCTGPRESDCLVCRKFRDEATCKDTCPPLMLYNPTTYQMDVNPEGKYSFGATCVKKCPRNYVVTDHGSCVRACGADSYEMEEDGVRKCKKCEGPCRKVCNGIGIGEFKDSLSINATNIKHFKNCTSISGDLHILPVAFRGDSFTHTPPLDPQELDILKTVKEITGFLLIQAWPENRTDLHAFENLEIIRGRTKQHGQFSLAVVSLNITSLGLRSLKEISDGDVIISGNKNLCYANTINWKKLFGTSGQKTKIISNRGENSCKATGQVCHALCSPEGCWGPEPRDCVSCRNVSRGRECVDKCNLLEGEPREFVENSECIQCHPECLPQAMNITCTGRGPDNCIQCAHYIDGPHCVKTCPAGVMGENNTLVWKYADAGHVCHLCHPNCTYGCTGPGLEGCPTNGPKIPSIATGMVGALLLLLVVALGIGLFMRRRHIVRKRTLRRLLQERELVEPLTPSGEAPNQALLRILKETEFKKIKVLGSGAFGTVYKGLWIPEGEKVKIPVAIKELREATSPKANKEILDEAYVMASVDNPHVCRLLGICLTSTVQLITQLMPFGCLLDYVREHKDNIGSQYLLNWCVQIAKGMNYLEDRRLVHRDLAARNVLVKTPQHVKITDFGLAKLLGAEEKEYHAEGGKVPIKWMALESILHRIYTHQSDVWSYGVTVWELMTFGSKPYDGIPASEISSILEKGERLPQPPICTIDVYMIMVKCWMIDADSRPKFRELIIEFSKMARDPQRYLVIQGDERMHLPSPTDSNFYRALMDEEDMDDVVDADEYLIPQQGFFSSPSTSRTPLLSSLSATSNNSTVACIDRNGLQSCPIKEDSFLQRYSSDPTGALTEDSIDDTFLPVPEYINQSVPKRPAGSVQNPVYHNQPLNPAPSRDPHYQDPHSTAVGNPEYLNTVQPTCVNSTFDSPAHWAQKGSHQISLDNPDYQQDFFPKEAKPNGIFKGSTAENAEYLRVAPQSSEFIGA

As usually defined, the IC50 is the point on the concentration scale where inhibition reaches its midpoint. Higher therefore signals lower potency. For `C=CC(=O)N1CCC12CN(c1ccc3ncnc(Nc4cc(C)c(Oc5ccn6ncnc6c5)cc4F)c3n1)C2` [Example 361], the IC50 in data set [1] (ErbB2 WT enzyme assay) amounted to 33.6 nM; in data set [2] (EGFR enzyme assay), 908 nM; in data set [3] (setting [7]) it was 8 nM; in data set [4] (setting [8]) it was 760 nM. Further, the efflux ratio at 2 h, 1 µM is 2.3 in data set [5] and 2.9 in data set [6].

For `C=CC(=O)N1CCCC(c2ccc3ncnc(Nc4ccc(Oc5ccc6c(c5)ncn6C)c(C)c4)c3n2)CC1` (stereo not drawn) [Example 121, 1-(4-(4-((3-methyl-4-((1-methyl-1H-benzo[d]imidazol-5-yl)oxy)phenyl)amino)pyrido[3,2-d]pyrimidin-6-yl)azepan-1-yl)prop-2-en-1-one], the IC50 in data set [1] (ErbB2 WT enzyme) amounted to 30.8 nM; in data set [2] (EGFR enzyme), 5570 nM; in data set [3] (ErbB2 YVMA phosphorylation) it was 9.1 nM; in data set [4] (setting [9]) it was 4580 nM. Further, the efflux ratio at 2 h, 1 µM is 4 in data set [5] and 1.9 in data set [6].

Take `C=CC(=O)N1CCN(c2ccc3ncnc(Nc4cc(C)c(Oc5cnc6c(c5)ncn6C)cc4F)c3n2)C[C@H]1C1CC1` [Example 356]: the IC50 is 234 nM in data set [1] (ErbB2 WT enzyme assay), not below 10000 nM in data set [2] (EGFR enzyme assay), 27.1 nM in data set [3] (setting [7]) and not below 5000 nM in data set [4] (setting [8]). Also, the efflux ratio at 2 h, 1 µM came to 4.8 in data set [5] and 0.9 in data set [6].

Consider `C=CC(=O)N1[C@@H]2CC[C@H]1[C@H](c1ccc3ncnc(Nc4ccc(Oc5ccc6c(c5)ncn6C)c(C)c4F)c3n1)C2` [Example 394], for which the half-inhibitory concentration (IC50) in data set [1] (ErbB2 WT enzyme assay) was 11.4 nM; in data set [2] (EGFR enzyme assay) it was 252 nM; in data set [3] (setting [7]), 10.7 nM; in data set [4] (setting [8]) it was not below 5000 nM. Further, the efflux ratio at 2 h, 1 µM in data set [5] came out at 1.8; in data set [6], 2.6.

For the compound `C=CC(=O)N1CCN(c2ccc3ncnc(Nc4ccc(Oc5ccn6ncnc6c5)c(C)c4F)c3n2)C[C@H]1C(C)(C)C` [Example 303], the IC50 in data set [1] (ErbB2 WT enzyme assay) was determined as 20 nM; in data set [2] (EGFR enzyme assay), 5070 nM; in data set [3] (setting [7]), 18.3 nM; in data set [4] (setting [8]), 2580 nM. The efflux ratio at 2 h, 1 µM was 1.1 in data set [5] and 1.3 in data set [6].

With `C=CC(=O)N1C[C@@H]2C[C@H]1C[C@H]2c1ccc2ncnc(Nc3ccc(Oc4ccn5ncnc5c4)c(C)c3F)c2n1` (racemic) [Example 199, rac-1-((1 S,4R,5R)-5-(4-((4-([1,2,4]triazolo[1,5-a]pyridin-7-yloxy)-2-fluoro-3-methylphenyl)amino)pyrido[3,2-d]pyrimidin-6-yl)-2-azabicyclo[2.2.1]heptan-2-yl)prop-2-en-1-one], the IC50 in data set [1] (ErbB2 WT enzyme) was 17.4 nM; in data set [2] (EGFR enzyme) it was 483 nM; in data set [3] (ErbB2 YVMA phosphorylation), 22.3 nM; in data set [4] (setting [9]) it was 942 nM. The efflux ratio at 2 h, 1 µM in data set [5] is 3.2; in data set [6], 0.6.

In the case of `C=CC(=O)N1CCCC(c2ccc3ncnc(Nc4cc(C)c(Oc5ccn6ncnc6c5)cc4F)c3n2)CC1` (stereo not drawn) [Example 368], the IC50 in data set [1] (ErbB2 WT enzyme assay) was 76.1 nM; in data set [2] (EGFR enzyme assay), 9630 nM; in data set [3] (setting [7]), 34.7 nM; in data set [4] (setting [8]), not below 5000 nM. Besides, the efflux ratio at 2 h, 1 µM was determined as 2.7 in data set [5] and 1.4 in data set [6].

For `C=CC(=O)N1CCN(c2ccc3ncnc(Nc4cc(C)c(Oc5ccn6ncnc6c5)cc4F)c3n2)C[C@H]1CC` [Example 164, (R)-1-(4-(4-((4-([1,2,4]triazolo[1,5-a]pyridin-7-yloxy)-2-fluoro-5-methylphenyl)amino)pyrido[3,2-d]pyrimidin-6-yl)-2-ethylpiperazin-1-yl)prop-2-en-1-one], the IC50 in data set [1] (ErbB2 WT enzyme) was 45.8 nM; in data set [2] (EGFR enzyme) it was not below 10000 nM; in data set [3] (ErbB2 YVMA phosphorylation) it was 14.7 nM; in data set [4] (setting [9]) it was 665 nM. Also, the efflux ratio at 2 h, 1 µM is 2.5 in data set [5] and 1.1 in data set [6].

As for `C=CC(=O)N1C[C@@H]2C[C@H](c3ccc4ncnc(Nc5cc(C)c(Oc6ccc7c(c6)ncn7C)cc5F)c4n3)C[C@H]1C2` [Example 388], the IC50 in data set [1] (ErbB2 WT enzyme assay) came to 40.7 nM; in data set [2] (EGFR enzyme assay) it was 1800 nM; in data set [3] (setting [7]), 28.1 nM; in data set [4] (setting [8]), 1700 nM. The figures for the efflux ratio at 2 h, 1 µM in data set [5] and in data set [6] were 1.8 and 3.2, respectively.

As for `C=CC(=O)N1CCN(c2ccc3ncnc(Nc4cc(C)c(Oc5ccn6ncnc6c5)cc4F)c3n2)CC12CC2` [Example 337], the IC50 in data set [1] (ErbB2 WT enzyme assay) stood at 13 nM; in data set [2] (EGFR enzyme assay), 362 nM; in data set [3] (setting [7]), 8.2 nM; in data set [4] (setting [8]) it was 417 nM. Besides, the efflux ratio at 2 h, 1 µM in data set [5] was found to be 3.6; in data set [6] it was 1.4.

Consider `C=CC(=O)N1CC[C@H](c2ccc3ncnc(Nc4ccc(Oc5ccc6c(c5)ncn6C)c(C)c4F)c3n2)CC(C)(C)C1` (racemic) [Example 140, rac-(R)-1-(5-(4-((2-fluoro-3-methyl-4-((1-methyl-1H-benzo[d]imidazol-5-yl)oxy)phenyl)amino)pyrido[3,2-d]pyrimidin-6-yl)-3,3-dimethylazepan-1-yl)prop-2-en-1-one], for which the IC50 in data set [1] (ErbB2 WT enzyme) is 225 nM; in data set [2] (EGFR enzyme) it was not below 10000 nM; in data set [3] (ErbB2 YVMA phosphorylation), 31.1 nM; in data set [4] (setting [9]), not below 5000 nM. For the same compound, the efflux ratio at 2 h, 1 µM in data set [5] was 1.9; in data set [6], 1.2.

On to `Cc1c(Oc2ccn3ncnc3c2)ccc(Nc2ncnc3ccc(N4CCN(C#N)C(C)(C)C4)nc23)c1F` [Example 245, 4-(4-((4-([1,2,4]triazolo[1,5-a]pyridin-7-yloxy)-2-fluoro-3-methylphenyl)amino)pyrido[3,2-d]pyrimidin-6-yl)-2,2-dimethylpiperazine-1-carbonitrile], for which the IC50 in data set [1] (ErbB2 WT enzyme) was 83.1 nM; in data set [2] (EGFR enzyme), not below 10000 nM; in data set [3] (ErbB2 YVMA phosphorylation), 177 nM; in data set [4] (setting [9]), not below 5000 nM. In addition, the efflux ratio at 2 h, 1 µM is 4.2 in data set [5] and 1.2 in data set [6].

For `C=CC(=O)N1CCCC(c2ccc3ncnc(Nc4ccc(Oc5cnc6c(c5)ncn6C)c(C)c4F)c3n2)CC1` (stereo not drawn) [Example 413], the IC50 in data set [1] (ErbB2 WT enzyme assay) is 78.6 nM; in data set [2] (EGFR enzyme assay), 2220 nM; in data set [3] (setting [7]) it was 24.6 nM; in data set [4] (setting [8]) it was not below 5000 nM. The efflux ratio at 2 h, 1 µM is 2 in data set [5] and 1 in data set [6].

With `C=CC(=O)N1C2CC1CN(c1ccc3ncnc(Nc4ccc(Oc5ccn6ncnc6c5)c(Cl)c4F)c3n1)C2` [Example 25, 1-(3-(4-((4-([1,2,4]triazolo[1,5-a]pyridin-7-yloxy)-3-chloro-2-fluorophenyl)amino)pyrido[3,2-d]pyrimidin-6-yl)-3,6-diazabicyclo[3.1.1]heptan-6-yl)prop-2-en-1-one], the half-maximal inhibitory concentration (IC50) in data set [1] (ErbB2 WT enzyme) was found to be 50.1 nM; in data set [2] (EGFR enzyme) it was 558 nM; in data set [3] (ErbB2 YVMA phosphorylation), 12.1 nM; in data set [4] (setting [9]), 324 nM. The efflux ratio at 2 h, 1 µM in data set [5] is 6.8; in data set [6] it was 2.2.

For `C=CC(=O)N1[C@@H]2CC[C@H]1C[C@@H](c1ccc3ncnc(Nc4ccc(Oc5ccn6ncnc6c5)c(Cl)c4F)c3n1)C2` [Example 214, 1-((1R,3r,5S)-3-(4-((4-([1,2,4]triazolo[1,5-a]pyridin-7-yloxy)-3-chloro-2-fluorophenyl)amino)pyrido[3,2-d]pyrimidin-6-yl)-8-azabicyclo[3.2.1]octan-8-yl)prop-2-en-1-one], the IC50 in data set [1] (ErbB2 WT enzyme) was 21.6 nM; in data set [2] (EGFR enzyme), 279 nM; in data set [3] (ErbB2 YVMA phosphorylation), 25 nM; in data set [4] (setting [9]), not below 5000 nM. Also, the efflux ratio at 2 h, 1 µM came to 3.8 in data set [5] and 1.4 in data set [6].

As to `C=CC(=O)N1CCC(Sc2ccc3ncnc(Nc4cc(C)c(Oc5ccc6c(c5)ncn6C)cc4F)c3n2)CC1` [Example 64, 1-(4-((4-((2-fluoro-5-methyl-4-((1-methyl-1H-benzo[d]imidazol-5-yl)oxy)phenyl)amino)pyrido[3,2-d]pyrimidin-6-yl)thio)piperidin-1-yl)prop-2-en-1-one], the 50% inhibitory concentration (IC50) in data set [1] (ErbB2 WT enzyme) is 37.4 nM; in data set [2] (EGFR enzyme) it was not below 10000 nM; in data set [3] (ErbB2 YVMA phosphorylation), 32.9 nM; in data set [4] (setting [9]), not below 5000 nM. For the same compound, the efflux ratio at 2 h, 1 µM in data set [5] amounted to 4.2; in data set [6], 2.4.

Regarding `C=CC(=O)N1C[C@@H](c2ccc3ncnc(Nc4ccc(Oc5ccn6ncnc6c5)c(C)c4F)c3n2)C[C@@H]1C` (mixture of isomers) [Example 385], the IC50 stood at 28.3 nM in data set [1] (ErbB2 WT enzyme assay), 848 nM in data set [2] (EGFR enzyme assay), 29.4 nM in data set [3] (setting [7]) and 1950 nM in data set [4] (setting [8]). Further, the values for the efflux ratio at 2 h, 1 µM in data set [5] and in data set [6] were 5 and 1.3, respectively.

For the compound `C=CC(=O)N1[C@@H]2CC[C@H]1[C@H](c1ccc3ncnc(Nc4ccc(Oc5cnc6c(c5)ncn6C)c(C)c4F)c3n1)C2` [Example 419], the IC50 is 42.3 nM in data set [1] (ErbB2 WT enzyme assay), 1040 nM in data set [2] (EGFR enzyme assay), 21.5 nM in data set [3] (setting [7]) and not below 5000 nM in data set [4] (setting [8]). In addition, the efflux ratio at 2 h, 1 µM in data set [5] is 2.2; in data set [6], 0.8.

For the origin of these results see patent US12447153B2, “HER2 mutation inhibitors” (Array BioPharma Inc., priority 2021, dated 2025).
